Source: PMC8385015, “Tumour-on-chip microfluidic platform for assessment of drug pharmacokinetics and treatment response” (Communications Biology, 2021)
Where “and” joins values, the source holds several entries; their conditions need not be identical. Identical values can stand only once.

Tests used:
Format in all cases: cell-based
γH2AX = γH2AX immunofluorescence in SW620 spheroids, microfluidic chip; settings: SN38 monotherapy, day 7
Excerpt: (§1) SN38 is a TOP1 inhibitor that that prevents relegation of the DNA strand by binding to TOP1–DNA complex and causes DNA double strand breaks (DSBs). Those DNA DSB lesions trigger activation of the ATM kinase for effective repair. Inhibition of ATM and consequent accumulation of unrepaired breaks leading to increased cell death provides the rationale for developing this combination for cancer treatment. […] Here, we tested whether different schedules lead to different activation of pharmacodynamic markers that are associated with DNA DSB damage, apoptosis and cell proliferation. The γ-H2AX associated foci accumulate in cells exposed to DBS inducing agents[18],[19]. These foci can be detected by immunostaining to determine their, size and morphology. However, spheroid imaging using a 20x objective on a CV7000 confocal microscope cannot accurately explore foci morphology, so we introduced customised ImageJ macros (described in “Methods” section, Supplementary Fig. 2 and Supplementary Method 1) to quantitate positive cells within a spheroid. The same method was applied to quantitate CC3-positive (apoptotic) cells, while normalisation by spheroid area was not required for Ki67, as this biomarker is present in all proliferating cells. […]
Supplementary Figure 2. Fluorescence image processing, per biomarker, using Fiji ImageJ custom-made macros […]

Ki67 = Ki67 immunofluorescence in SW620 spheroids, microfluidic chip
Excerpt: as §1
Total Hoechst area represents a parameter used for normalization within biomarker quantitation. […]

SW620 spheroids = assay: SW620 spheroid viability (CellTiterGlo), static plate format; settings: 6 days
Description: In microfluidic Ibidi chip, tumour spheroids were exposed to eight different concentrations in a gradient fashion mimicking the in vivo pharmacokinetic profile and treatment schedule for both drugs. c Spheroids were imaged in situ (plate/chip) at the end of the treatment and their volumes calculated from average radius deducted from min/max Feret. d Spheroid viability was measured at the end of the treatment by CellTiterGlo assay (d). N = 6 per condition from two independent experiments. Box-plots show median (centre line); box limits are 25th to 75th percentile; whiskers represent min and max values. Statistical analysis was performed using 1-way ANOVA.
From the same experimental setup, we explored SW620 spheroid viability at 6 days for static and microfluidic setup (Fig. 2d).
Compounds were dispensed in each well using an automated HP D300 digital dispenser (Tecan, UK).
Spheroid viability assessment used a metabolic method (CellTiterGlo 3D, G9681, Promega) by measuring luminescence units expressed by individually recovered spheroids. […] CellTiterGlo vial was allowed to thaw (1 h, room temperature) and 25 µL reagent were added to each spheroid well. […] Luminescence levels were measured using a SpectraMax i3X (Molecular Devices, USA).

CCc1c2c(nc3ccc(O)cc13)-c1cc3c(c(=O)n1C2)COC(=O)[C@]3(O)CC [SN38]
change in γH2AX compared to the control group (γH2AX): did not observe a significant change
Ki67 positive area (Ki67; Mono SN38, day 7, single spheroids): 3.88E+07 and 4.54E+07 and 3.33E+07 and 4.06E+07 and 4.69E+07
decrease in proliferation (Ki67) compared to control (Ki67; SN38 monotherapy, day 7): about 20%
spheroid viability (SW620 spheroids; Static plate format, CellTiterGlo, replicates (Fig 2d raw data), unit not given): 36.02 and 31.7 and 39.52
reduction in spheroid viability (SW620 spheroids; static, continuous exposure): ~ 60%
